Assay results taken from patent US8206983B2, “In vitro methods for the induction and maintenance of plant cell lines as single suspension cells with intact cell walls” (Dow AgroSciences, LLC., priority 2006, dated 2012).

Tests used:
Tobacco BY2 suspension = assay: BY2 single cell production with diphenylpyrazole; type: cell-based
Experimental: Production of GFP expressing single cells. Single cells were produced by adding 1 uM concentration of the compound DDP (diphenylpyrazole) during the initiation of the 7 d culture cycle in the LSBY2-Gly-B15 medium along with the addition of 0.5 ml Pack Cell Volume (PCV) of GFP expressing suspension aggregates at the stationary phase. Alternately, a 25-ml of suspension aggregates were transferred to a 25-ml of fresh LSBY2-Gly-B15 suspension medium by adding 50 ul of […] diphenylpyrazole stock solution dissolved in DMSO to provide a 1 uM final concentration in the suspension. Thus single cells could be produced in a much shorter cycle of only 3.5 days. The LSBY215 medium always contain 15 mg/l glufosinate ammonium for selection
Initiation of single cells in preparation for plastid transformation. Four milliliters of Tobacco BY2 suspension (at the stationary phase growth maintained on a 7-d cycle) was added to 26 mL of fresh medium that composed of either Medium A [LS salts (PhytoTechnology Laboratories, L689), 120 g/L sucrose, 1 mg/L nicotinic acid, 1 mg/L pyridoxine HCl, 10 mg/L thiamine HCl, and 20 nM diphenylpyrazole (DPP)] or Medium B [LS salts, 120 g/L sucrose, 1 mg/L nicotinic acid, 1 mg/L pyridoxine HCl, 10 mg/L thiamine HCl, 2.5 mg/L benzylaminopurine (BAP) and 20 nM DPP] contained in a 125 mL shake flask with a foam stopper. […]

PH suspension cells = assay: Recovery of Petite Havana suspension cells after DAS-PMTI-1 treatment; type: cell-based, tobacco; conditions: after 7 days at 0.5 mM; after 2 weeks
From the text: (§1) BY2 suspension-cultured cells were obtained from Japan tobacco and maintained in LSBY2 medium in a 7 day cycle. Jimsonweed suspension and Pettite Havana tobacco suspensions were initiated from callus initiated at DAS and Xanthi suspensions were procured as a sample from Professor Jack Widholm from UIUC, IL. JT-NT1 suspension cells, obtained from Washington University that are maintained in NT1B medium in 7 day cycle were used only for the pectin degradation enzyme study to separate the cells into single cells. The cells were cultured in shake flasks at 25-28° C. in dark on orbital shakers at 150 rpm. […] The NT-1 cell line is widely used and readily available; though, any tobacco suspension cell line is consistent with the practice of the invention. […]
(§2) Cell expansion and separation were observed by light microscopy (with Nomarski and dark field optics). Spherical cells and single cells were counted by using a hemacytometer to determine the degree of cell expansion and separation, respectively. Cell numbers in aggregates were determined by treating with 5% (wt/vol) chromium trioxide for 16 hr and counting cells (Henshaw et. al, 1966). Cell viability was determined by staining cells (Yokoyama et. al, 1997) with fluorescein diacetate (FDA) and propidium iodide (PI) using a fluorescent microscope (Zeiss Photomicroscope). […]

maize suspension = assay: Single cell production from chlorophyllous maize cell cultures; type: cell-based
From the text: The maize photoautotrophi cultures were initiated and maintained in 7 day culture cycles (Jayakumar et. al. 2005). […] The maize suspension units are tightly packed into hard cell aggregates when compared to the dicot cells analyzed.

[1] = tested on: Xanthi tobacco suspension; assay: Single cell induction by colchicine in Xanthi suspension; type: cell-based
From the text: as §1, §2

Eragrostis curvula = conditions: seeds treated with 0.05% colchicine, tetraploids; cited from earlier work

Compound	single cell production (Tobacco BY2 suspension; 20 nM, Medium A and Medium B, 7 days)	cells with single nucleus with one or two nucleoli (Tobacco BY2 suspension; 1 uM, 3.5 days of culture, LSBY2 Glycerol medium)	recovery after subculture in the absence of the compound (PH suspension cells)	concentration at which active in releasing single cells (maize suspension)	single cell release ([1]; 0.5 mM, 7 d)	single cell release ([1]; 1 mM)	polymorphic percentage (Eragrostis curvula)
CCOC(=O)COc1nn(-c2ccccc2)c(-c2ccccc2)c1Cl [DAS-PMTI-1]	produced single cells	90%	recovered as single cells with a low frequency	–	–	–	–
COc1cc2c(c(OC)c1OC)-c1ccc(OC)c(=O)cc1[C@@H](NC(C)=O)CC2 [Colchicine]	–	–	–	above 0.5 mM	partial release of single cells	Separated single cells	1.09%
